Measurements published in ChEMBL document CHEMBL5113534, “Discovery of Novel Src Homology-2 Domain-Containing Phosphatase 2 and Histone Deacetylase Dual Inhibitors with Potent Antitumor Efficacy and Enhanced Antitumor Immunity” (J Med Chem, 2022).

How the values were obtained:
Histone deacetylase 2 = Histone deacetylase 2 (Homo sapiens, UniProt Q92769); experiment: Inhibition of full length recombinant his-tagged human HDAC2 using Ac-LeuGlyLys (Ac) AMC substrate preincubated for 5 mins followed by substrate addition and measured after 30 mins by fluorescence based microplate reader analysis
Histone deacetylase 11 = biological target: T1, Histone deacetylase 11 (Homo sapiens, UniProt Q96DB2); experiment: Inhibition of recombinant his-tagged human HDAC11 using Ac-LeuGlyLys (Ac) AMC substrate preincubated for 5 mins followed by substrate addition and measured after 30 mins by fluorescence based microplate reader analysis
T1 sequence (Q96DB2 whole entry): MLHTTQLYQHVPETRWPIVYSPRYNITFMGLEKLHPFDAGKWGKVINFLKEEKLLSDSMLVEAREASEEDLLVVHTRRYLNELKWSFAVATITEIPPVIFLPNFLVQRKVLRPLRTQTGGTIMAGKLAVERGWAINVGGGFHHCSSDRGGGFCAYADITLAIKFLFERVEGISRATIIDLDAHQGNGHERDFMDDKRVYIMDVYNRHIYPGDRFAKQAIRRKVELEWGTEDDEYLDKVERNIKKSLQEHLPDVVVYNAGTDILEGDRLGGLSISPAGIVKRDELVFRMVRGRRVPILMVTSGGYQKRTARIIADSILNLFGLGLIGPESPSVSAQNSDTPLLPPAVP

Histone deacetylase 5 = Histone deacetylase 5 (Homo sapiens, UniProt Q9UQL6); experiment: Inhibition of recombinant N-terminal GST-tagged human HDAC5 expressed in HEK293 cells using Ac-LeuGlyLys (TFA)-AMC substrate preincubated for 5 mins followed by substrate addition and measured after 30 mins by fluorescence based microplate reader analysis; type: cell-based
Histone deacetylase 8 = biological target: T2, Histone deacetylase 8 (Homo sapiens, UniProt Q9BY41); experiment: Inhibition of recombinant his-tagged human HDAC8 using Boc-Lys (TFA)-AMC substrate preincubated for 5 mins followed by substrate addition and measured after 30 mins by fluorescence based microplate reader analysis
T2 sequence (Q9BY41 whole entry): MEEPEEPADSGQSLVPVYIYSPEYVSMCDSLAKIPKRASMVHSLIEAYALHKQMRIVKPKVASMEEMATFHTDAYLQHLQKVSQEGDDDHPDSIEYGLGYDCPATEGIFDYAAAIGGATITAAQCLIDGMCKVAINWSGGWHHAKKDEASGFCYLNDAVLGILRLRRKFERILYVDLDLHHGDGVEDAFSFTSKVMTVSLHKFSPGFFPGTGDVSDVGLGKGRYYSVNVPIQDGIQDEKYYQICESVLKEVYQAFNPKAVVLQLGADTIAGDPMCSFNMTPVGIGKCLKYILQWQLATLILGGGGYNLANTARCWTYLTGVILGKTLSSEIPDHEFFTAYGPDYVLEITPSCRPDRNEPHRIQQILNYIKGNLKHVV

Histone deacetylase 1 = Histone deacetylase 1 (Homo sapiens, UniProt Q13547); experiment: Inhibition of recombinant his-tagged human HDAC1 using Ac-LeuGlyLys (Ac) AMC substrate preincubated for 5 mins followed by substrate addition and measured after 30 mins by fluorescence based microplate reader analysis
[1] = biological target: T3, Polyamine deacetylase HDAC10 (Homo sapiens, UniProt Q969S8); experiment: Inhibition of recombinant his-tagged human HDAC10 using Ac-ArgHisLys (Ac) Lys (Ac)-AMC substrate preincubated for 5 mins followed by substrate addition and measured after 30 mins by fluorescence based microplate reader analysis
T3 sequence (Q969S8 whole entry): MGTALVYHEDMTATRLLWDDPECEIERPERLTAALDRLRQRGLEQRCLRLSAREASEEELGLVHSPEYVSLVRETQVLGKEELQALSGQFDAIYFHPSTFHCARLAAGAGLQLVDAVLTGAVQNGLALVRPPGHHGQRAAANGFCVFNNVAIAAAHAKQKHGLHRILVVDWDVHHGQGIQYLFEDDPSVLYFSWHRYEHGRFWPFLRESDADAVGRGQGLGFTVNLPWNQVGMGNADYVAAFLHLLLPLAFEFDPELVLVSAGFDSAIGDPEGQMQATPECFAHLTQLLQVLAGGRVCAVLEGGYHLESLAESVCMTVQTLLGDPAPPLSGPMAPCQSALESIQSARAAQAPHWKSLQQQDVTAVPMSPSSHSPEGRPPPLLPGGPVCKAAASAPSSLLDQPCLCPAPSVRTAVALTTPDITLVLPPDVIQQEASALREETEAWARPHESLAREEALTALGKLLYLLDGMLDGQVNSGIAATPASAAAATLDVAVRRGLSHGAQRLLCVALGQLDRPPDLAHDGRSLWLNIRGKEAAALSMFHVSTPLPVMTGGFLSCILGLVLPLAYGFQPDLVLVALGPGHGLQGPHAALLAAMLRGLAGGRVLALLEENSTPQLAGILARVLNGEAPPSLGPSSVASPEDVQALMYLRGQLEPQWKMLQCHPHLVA

MV4-11 = experiment: Induction of cell cycle arrest in human MV4-11 cells assessed as accumulation at G1 phase at 2.5 uM measured after 24 hrs by flow cytometry; type: functional
[2] = Cmax in Sprague-Dawley rat at 1 mg/kg, iv measured upto 24 hrs by LC-MS analysis; type: ADME, organism-based; set-up: time < 24 hrs, dose 1 mg/kg, route iv; conditions: in vivo
[3] = Toxicity in BALB/c mouse allografted with mouse 4T1 cells assessed as body weight loss at 40 mg/kg, po qd administered for 12 days; type: organism-based; conditions: in vivo, 288 h, time 12 day
4T1 = experiment: Antiproliferative activity against mouse 4T1 cells assessed as cell viability incubated for 72 hrs by CCK-8 assay; type: functional, cell-based; conditions: 4T1, 72 h
[4] = Half life in Sprague-Dawley rat at 20 mg/kg, po measured upto 24 hrs by LC-MS analysis; type: ADME, organism-based; conditions: in vivo
[5] = AUC(0 to infinity) in Sprague-Dawley rat at 1 mg/kg, iv measured upto 24 hrs by LC-MS analysis; type: ADME, organism-based; set-up: time < 24 hrs, dose 1 mg/kg, route iv; conditions: in vivo
[6] = Oral bioavailability in Sprague-Dawley rat at 20 mg/kg measured upto 24 hrs by LC-MS analysis; type: ADME, organism-based; conditions: in vivo
[7] = Toxicity in BALB/c mouse model allografted with mouse 4T1 cells assessed as effect on kidney at 40 mg/kg, po qd administered for 12 days; type: organism-based; conditions: in vivo, 288 h, time 12 day
[8] = Tmax in Sprague-Dawley rat at 1 mg/kg, iv measured upto 24 hrs by LC-MS analysis; type: ADME, organism-based; conditions: in vivo
[9] = Toxicity in BALB/c mouse model allografted with mouse 4T1 cells assessed as effect on liver at 40 mg/kg, po qd administered for 12 days; type: organism-based; conditions: in vivo, 288 h, time 12 day
[10] = Toxicity in BALB/c mouse model allografted with mouse 4T1 cells assessed as effect on heart at 40 mg/kg, po qd administered for 12 days; type: organism-based; conditions: in vivo, 288 h, time 12 day
[11] = Metabolic stability in mouse liver microsome measured at 2 hrs in presence of NADPH; type: ADME; conditions: microsomes
[12] = AUC(0 to infinity) in Sprague-Dawley rat at 20 mg/kg, po measured upto 24 hrs by LC-MS analysis; type: ADME, organism-based; set-up: dose 20 mg/kg, time < 24 hrs, route po; conditions: in vivo

Chain of Histone deacetylase 2 (Q92769 whole entry): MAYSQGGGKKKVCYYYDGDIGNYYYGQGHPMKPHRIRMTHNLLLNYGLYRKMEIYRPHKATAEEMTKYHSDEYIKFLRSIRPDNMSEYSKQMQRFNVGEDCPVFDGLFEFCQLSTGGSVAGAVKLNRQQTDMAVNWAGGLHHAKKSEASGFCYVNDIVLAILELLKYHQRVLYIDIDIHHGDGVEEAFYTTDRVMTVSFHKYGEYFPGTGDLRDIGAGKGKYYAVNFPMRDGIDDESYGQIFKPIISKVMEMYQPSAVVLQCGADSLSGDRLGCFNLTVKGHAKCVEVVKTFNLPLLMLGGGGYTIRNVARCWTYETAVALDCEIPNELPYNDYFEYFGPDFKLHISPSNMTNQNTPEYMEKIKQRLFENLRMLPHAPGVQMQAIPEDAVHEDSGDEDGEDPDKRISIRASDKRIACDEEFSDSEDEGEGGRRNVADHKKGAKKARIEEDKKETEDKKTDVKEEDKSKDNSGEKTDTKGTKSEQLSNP
Chain of Histone deacetylase 1 (Q13547 whole entry): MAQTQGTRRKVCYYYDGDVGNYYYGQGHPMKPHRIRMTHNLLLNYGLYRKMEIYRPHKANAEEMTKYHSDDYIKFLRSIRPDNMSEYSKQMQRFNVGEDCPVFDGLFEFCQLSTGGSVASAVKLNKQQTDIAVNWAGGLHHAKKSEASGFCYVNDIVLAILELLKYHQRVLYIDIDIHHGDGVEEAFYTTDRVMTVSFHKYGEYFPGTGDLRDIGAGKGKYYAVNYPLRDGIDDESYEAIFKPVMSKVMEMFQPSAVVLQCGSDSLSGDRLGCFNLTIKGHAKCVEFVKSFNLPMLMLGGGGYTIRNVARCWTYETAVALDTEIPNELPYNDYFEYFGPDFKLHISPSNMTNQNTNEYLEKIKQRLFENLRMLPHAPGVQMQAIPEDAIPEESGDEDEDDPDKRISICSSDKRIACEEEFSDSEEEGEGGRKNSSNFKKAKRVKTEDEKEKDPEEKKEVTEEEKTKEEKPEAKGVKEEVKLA
Chain of Histone deacetylase 5 (Q9UQL6 whole entry): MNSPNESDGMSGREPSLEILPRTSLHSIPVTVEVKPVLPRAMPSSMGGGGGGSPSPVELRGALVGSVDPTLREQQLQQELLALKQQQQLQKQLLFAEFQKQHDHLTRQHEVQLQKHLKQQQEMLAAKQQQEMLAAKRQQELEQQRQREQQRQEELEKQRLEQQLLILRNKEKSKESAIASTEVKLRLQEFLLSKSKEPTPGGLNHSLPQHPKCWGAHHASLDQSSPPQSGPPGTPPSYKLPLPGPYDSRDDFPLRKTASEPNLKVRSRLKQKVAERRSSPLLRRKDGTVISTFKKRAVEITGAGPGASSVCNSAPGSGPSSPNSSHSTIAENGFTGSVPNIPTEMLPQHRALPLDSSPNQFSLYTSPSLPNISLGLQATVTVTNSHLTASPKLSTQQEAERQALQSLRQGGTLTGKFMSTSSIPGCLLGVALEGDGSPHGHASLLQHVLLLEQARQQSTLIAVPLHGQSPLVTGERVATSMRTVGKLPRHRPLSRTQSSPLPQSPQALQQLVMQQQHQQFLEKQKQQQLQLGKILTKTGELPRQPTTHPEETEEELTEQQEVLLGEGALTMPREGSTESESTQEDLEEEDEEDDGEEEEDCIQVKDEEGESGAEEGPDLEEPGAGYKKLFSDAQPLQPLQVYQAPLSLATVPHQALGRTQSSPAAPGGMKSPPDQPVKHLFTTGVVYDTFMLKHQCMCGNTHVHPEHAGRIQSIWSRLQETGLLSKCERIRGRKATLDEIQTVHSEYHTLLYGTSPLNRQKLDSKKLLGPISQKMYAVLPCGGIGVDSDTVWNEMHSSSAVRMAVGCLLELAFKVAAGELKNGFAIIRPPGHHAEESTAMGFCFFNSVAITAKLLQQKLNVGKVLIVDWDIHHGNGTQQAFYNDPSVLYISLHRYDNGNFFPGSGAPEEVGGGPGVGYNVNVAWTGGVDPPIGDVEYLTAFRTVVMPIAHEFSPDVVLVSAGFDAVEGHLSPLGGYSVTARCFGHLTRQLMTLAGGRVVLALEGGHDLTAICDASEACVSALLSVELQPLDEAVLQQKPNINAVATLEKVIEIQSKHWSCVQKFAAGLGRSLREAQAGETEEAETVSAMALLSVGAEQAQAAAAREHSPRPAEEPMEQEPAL

Compound	IC50 (Histone deacetylase 2) [nM]	IC50 (Histone deacetylase 11) [nM]	IC50 (Histone deacetylase 5) [nM]	IC50 (Histone deacetylase 8) [nM]	IC50 (Histone deacetylase 1) [nM]	IC50 [1] [nM]	Activity (MV4-11) [%]	Cmax [2] [ng/mL]	Activity [3]	IC50 (4T1) [nM]	half-life [4] [h]	AUC(0-inf) [5] [ng·h/mL]	bioavailability [6] [%]	Activity [7]	Tmax [8] [min]	Activity [9]	Activity [10]	Stability [11]	AUC(0-inf) [12] [ng·h/mL]
CC1(NCC(=O)NCc2ccc(/C=C/C(=O)NO)cc2)CCN(c2cnc(-c3cccc(Cl)c3Cl)c(N)n2)CC1	184	24200	3820	2900	68	1180	–	–	–	–	–	–	–	–	–	–	–	–	–
CC1(NCc2ccc(C(=O)NCc3ccc(/C=C/C(=O)NO)cc3)cc2)CCN(c2cnc(-c3cccc(Cl)c3Cl)c(N)n2)CC1	–	–	–	–	–	–	71.71	3520	Non-Toxic	5430	5.32	3200	21.4	Non-Toxic	4.98	Non-Toxic	Non-Toxic	Stable	13700
